In the NIST ThermoML archive (doi:10.1016/j.fluid.2011.07.014):

Details: Liquid, Ebulliometric method (Recirculating still)

CC(C)=C(C)C [2,3-dimethyl-2-butene]
Details | vapor or sublimation pressure [kPa]
336.5 K | 73.5
338.2 K | 77.5
340.6 K | 84.2
342.65 K | 90.2
344.2 K | 94.7
346.24 K | 101.2
347.65 K | 105.3
350.1 K | 113.9
353.46 K | 125.5
355.35 K | 133.3
357.22 K | 140.4
362.8 K | 164.8
365.76 K | 179.5
368.05 K | 190.9
370.36 K | 202.8
373.18 K | 218.8
375.2 K | 230.4
376.5 K | 238.5
379.15 K | 255.1
381.62 K | 271.2
383.05 K | 281.3
384.7 K | 292.1
386.65 K | 306.8
388.2 K | 318.4
